# Test results from patent US10028960B2, “Pyrimidine compounds as JAK kinase inhibitors” (THERAVANCE BIOPHARMA R&D IP, LLC, priority 2016, dated 2018).
# Where two headings read alike, the source gives them in different places.
# Experiments:
# [1] = tested on: IL-4 stimulated STAT6 phosphorylation in CD3+ T cells in human PBMCs; assay: Cellular JAK potency assay: inhibition of IL-4 stimulated pSTAT6 in CD3+ T cells; format: cell-based; details: T-cell
# Method: The potency of test compounds for inhibition of interleukin-4 (IL-4) stimulated STAT6 phosphorylation was measured in CD3-positive (CD3+) T cells in human peripheral blood mononuclear cells (PBMCs) isolated from human whole blood (Stanford Blood Center) using flow cytometry. Because IL-4 signals through JAK, this assay provides a measure of JAK cellular potency.
# CD3+ T cells were identified using a […] (PE) conjugated anti-CD3 antibody (Clone UCHT1, BD Biosciences), while an Alexa Fluor 647 conjugated anti-pSTAT6 antibody (pY641, Clone 18/P, BD Biosciences) was used to detect STAT6 phosphorylation.
# Human peripheral blood mononuclear cells (PBMC) were isolated from human whole blood of healthy donors using a ficoll gradient. […] After incubation, cells were washed twice in FACS buffer before being analyzed using a LSRII flow cytometer (BD Biosciences).
# To determine the inhibitory potency of test compounds in response to IL-4, the median fluorescent intensity (MFI) of pSTAT6 was measured in CD3+ T cells. IC50 values were determined from analysis of the inhibition curves of MFI vs compound concentration. Data are expressed as pIC50 (negative decadic logarithm IC50) values (mean±standard deviation).
# [2] = tested on: mouse splenic NK, B and T cells; details: in vivo, po
# Method: Depletion of mouse splenic cells is an experimental model of immunosuppression (Kudlacz et al., Am. J. of Transplantation, 2004, 4, 51-57). The compound of Example 2 was assessed in the mouse splenic cell model following the same treatment paradigm as that used in the oxazolone-induced colitis model (Assay 8).
# The compound (1, 10 and 100 mg/kg, BID) and tofacitinib (30 and 60 mg/kg, BID) as a positive control were dosed orally for three days to naïve mice. Spleens were harvested 1 h post last dose and crushed immediately for cell subtype staining. Prior to fixation, fluorophore-labelled antibodies for CD19 (FITC; B cells), CD3e (PE; pan T cells) and DX5 (APC; NK cells) were incubated with splenocyte samples from each animal to allow for simultaneous, multiple subtype % analysis on the flow cytometer. The number of total spleen cells for each animal was measured by Scepter™ 2.0 Handheld Automated Cell Counter.
# The absolute number of lymphocyte subtype population (e.g., splenic B, T and NK cells) was calculated from the percentage of each subtype times total spleen cells for each animal. A one way ANOVA, with Dunnett's post hoc test, was used to compare the splenic lymphocytes number of the vehicle and test compound groups. The a level was set at p<0.05. Data were presented as the mean±SEM for each group.
structure (smiles),measurement,setting,value
"COc1cc(Nc2cc(CO)[nH]n2)nc(N(C)[C@@H]2C[C@H]3CCC[C@@H](C2)N3S(=O)(=O)N2CC(C#N)C2)n1 [Example 2, 1-(((1R,3s,5S)-3-((4-((5-(Hydroxymethyl)-1H-pyrazol-3-yl)amino)-6-methoxypyrimidin-2-yl)(methyl)amino)-9-azabicyclo[3.3.1]nonan-9-yl)sulfonyl)azetidine-3-carbonitrile]",IC50,"[1]; IL-4 stimulated pSTAT6, CD3+ T cells, read-out: pIC50 value (converted)",~50.1 nM
same,IC50,"[1]; cellular assay, Assay 4, read-out: IC50 for inhibition of IL-4",≤ 50 nM
same,treatment effect on B and T cell populations,[2],No treatment effect
